Consider 2 compounds from US12616705B2, “Use of cannabinoids in the treatment of Angelman syndrome” (JAZZ PHARMACEUTICALS RESEARCH UK LIMITED, priority 2016, dated 2026).

In series [1] the test system is Heterozygous mice with maternal deficiency of Ube3A (Ube3am−/p+). The experiment in a line: Clasping test (ataxia) in a mouse model of Angelman syndrome. The settings on record: AS mice, CBD 20 mg/kg i.p. daily, chronic treatment (30 days), at 10 weeks of age, vs AS mice treated with vehicle; FIG. 1. The format is in vivo. On the procedure: (§1) Heterozygous mice with maternal deficiency of Ube3A (Ube3am−/p+) and wild type (Ube3am+/p+) were purchased from The Jackson Laboratory (Jackson code: B6.12957-Ube3a tm1Alb/J) and maintained in a C57BL/6 background.
(§2) Drugs were dissolved in 1:1:18 ethanol:cremophor: 0.9% saline, for intraperitoneal (i.p.) administration. […]
Clasping: The clasping test assesses ataxia in mice. Mice were suspended by the base of the tail and their behaviours were recorded for 30 seconds. The time for which the mice clasped their hind limbs was recorded. The time was then scored as follows: 4, 15-30 s, 3, 10-15 s, 2, 5-10 s, 1, 0-5 s and 0, 0 s.

For series [2] the test system is unchanged. In words: Tail suspension test (depressive-like behaviour) in a mouse model of Angelman syndrome. The format is in vivo. The settings on record: AS mice, CBD 20 mg/kg i.p. daily, vs AS mice treated with vehicle; FIG. 4. As for the experimental part: as §1
Drugs were dissolved in 1:1:18 ethanol:cremophor: 0.9% saline, for intraperitoneal (i.p.) administration. Drug treatment was performed daily for 35 days.
Tail suspension: The tail suspension test assesses depressive-like behaviour in mice. Mice were individually suspended by the tail on a horizontal bar (50 cm from floor) using adhesive tape placed approximately 4 cm from the tip of the tail. The duration of immobility was recorded in seconds over a period of 6 minutes by a time recorder. Immobility time was defined as the absence of escape-oriented behaviour.

For series [3] the test system is unchanged. The experiment in a line: Rotarod test (balance and motor coordination) in a mouse model of Angelman syndrome. The format is in vivo. The settings on record: AS mice, CBD 20 mg/kg i.p. daily, chronic treatment (30 days), vs AS mice treated with vehicle; FIG. 2. As for the experimental part: as §1, §2
Rotarod: The rotarod test assesses balance and motor coordination of mice. Mice have been measured for the time (in seconds) of equilibrium before falling on a rotary cylinder by a magnet that, activated from the fall of the mouse on the plate, allows to record the time of permanence on the cylinder. […] The animals were analysed by 2 separate tests at 1-h interval in the same day.
(Falling from the rotarod earlier than controls is read as motor impairment.)

The conditions of series [4]: background statement; cited from earlier work.

Turning to `C=C(C)[C@@H]1CCC(C)=C[C@H]1c1c(O)cc(CCCCC)cc1O` [CBD, Cannabidiol], in series [1], the clasping duration entry is “significantly reduced clasping duration”. Besides, the “duration of immobility time (tail suspension)” value in series [2] is on record as “significantly reduced the duration of immobility time”. In series [3], the “latency to fall (rotarod)” value is recorded as “significantly reduced latency to fall”.
For `Cc1c(C(=O)NN2CCCCC2)nn(-c2ccc(Cl)cc2Cl)c1-c1ccc(Cl)cc1` [rimonabant], the side effects result in series [4] is “serious side effects which limit its use, such as suicide ideation”.
